Data: patent publication US9707234B2, “Spirocyclic hetercycle compounds useful as HIV integrase inhibitors” (MERCK SHARP & DOHME CORP., priority 2013, dated 2017)
Like-named read-outs stand apart in the source and are kept apart here.

Test system: HIV-1 (H9IIIB or NL4-3 virus) replication in MT4-GFP cells
Assay: microbe, parasite or virus in culture
Format: cell-based
Details: inhibition of reproductive ratio R0, 48-72 h post-infection
[1] = Human immunodeficiency virus 1, NL43, MT4-GFP cells infected with HIV-1, 100% normal human serum, read-out: ViKinG IP (nM) with 100% NHS
[2] = Human immunodeficiency virus 1, NL43, MT4-GFP cells infected with HIV-1, serum free conditions (0% NHS), read-out: ViKinG IP (nM) with 0% NHS
[3] = MT4-GFP cells infected with HIV-1, 100% normal human serum, read-out: ViKinG IP (nM) with 100% NHS
[4] = MT4-GFP cells infected with HIV-1, serum free conditions (0% NHS), read-out: ViKinG IP (nM) with 0% NHS
[5] = Human immunodeficiency virus 1, NL43, MT4-GFP cells infected with HIV-1, 10% normal human serum, read-out: ViKinG IP (nM) with 10% NHS

SMILES | IC50 [1] [nM] | IC50 [2] [nM] | IC50 [3] [nM] | also measured
CCC(c1nnc(-c2cn3c(c(O)c2=O)C(=O)N(CC)C2(CCOCC2)C3)s1)c1ccc(F)cc1F (centres unmarked) [Compound 100] | 704 | 29.2 | – | –
CN1C(=O)c2c(O)c(=O)c(C(=O)NCc3ccccc3F)cn2N(C)C12CCOC2 (single isomer, unassigned) [Compound 112] | – | – | 231 | IC50 [4]: 0.9 nM
CN1C(=O)c2c(O)c(=O)c(C(=O)NCc3ccc(F)cc3F)cn2N(CCO)C12CCOC2 (centres unmarked) [Compound 147] | – | 1.6 | 74 | –
CCOP(=O)(CCN1n2cc(C(=O)NCc3ccc(F)cc3F)c(=O)c(O)c2C(=O)N(C)C12CCOC2)OCC (single isomer, unassigned) [Compound 159] | 71 | – | – | –
CCOCCN1C(=O)c2c(O)c(=O)c(C(=O)NCc3ccc(F)cc3F)cn2CC12CCOCC2 [Compound 44] | 57 | 5.8 | – | –
CCN1C(=O)c2c(O)c(=O)c(-c3nnc(Cc4ccc(F)cc4)s3)cn2N(C)C12CCNCC2 [Compound 33] | 89 | – | – | IC50 [5]: 49 nM
CCOCCN1C(=O)c2c(O)c(=O)c(C(=O)NCc3ccc(F)cc3F)cn2N(C)C12CCOC2 (single isomer, unassigned) [Compound 126] | – | – | 455 | IC50 [4]: 1.3 nM
CCN1C(=O)c2c(O)c(=O)c(-c3nnc(Cc4ccc(F)cc4)s3)cn2N(C)C12CCN(C(=O)OCc1ccccc1)CC2 [Compound 11] | 359 | – | – | IC50 [5]: 31 nM
CN1C(=O)c2c(O)c(=O)c(C(=O)NCc3cccc(Cl)c3F)cn2N(C)C12CCOC2 (single isomer, unassigned) [Compound 109] | 229 | 0.6 | – | –
CCN1C(=O)c2c(O)c(=O)c(-c3nnc(Cc4ccc(F)cc4F)s3)cn2N(C)C12CCN(c1ncccn1)CC2 [Compound 17] | 1520 | 29.3 | – | –
CN1C(=O)c2c(O)c(=O)c(C(=O)NCc3ccc(F)cc3F)cn2N(Cc2ccccc2)C12CCOC2 (single isomer, unassigned) [Compound 162] | – | – | 72 | –
CN1C(=O)c2c(O)c(=O)c(C(=O)NCc3ccc(F)cc3F)cn2CC12COC2 [Compound 68] | 134 | 7.6 | – | –
COCCN1C(=O)c2c(O)c(=O)c(C(=O)NCc3ccc(F)cc3F)cn2N(C)C12CCOC2 (single isomer, unassigned) [Compound 122] | – | – | 1990 | IC50 [4]: 2.4 nM
COCCCN1C(=O)c2c(O)c(=O)c(C(=O)NCc3ccc(F)cc3F)cn2N(C)C12CCOC2 (single isomer, unassigned) [Compound 124] | – | – | 309 | IC50 (MT4-GFP cells infected with HIV-1, 10% normal human serum, read-out: ViKinG IP (nM) with 10% NHS): 22 nM; IC50 [4]: 1.8 nM
O=C(NCc1ccc(F)cc1F)c1cn2c(c(O)c1=O)C(=O)N(CCCCC(F)(F)F)C1(CCOCC1)C2 [Compound 47] | 71 | 6.6 | – | –
CCOCCN1C(=O)c2c(O)c(=O)c(C(=O)NCc3ccc(F)cc3F)cn2CC12CCOC2 (single isomer, unassigned) [Compound 78] | – | – | 55 | IC50 [4]: 2.3 nM
COCCN1C(=O)c2c(O)c(=O)c(C(=O)NCc3ccc(F)c(Cl)c3F)cn2CC12CCOC2 (single isomer, unassigned) [Compound 54] | 989 | 2.3 | – | –
COCCCN1C(=O)c2c(O)c(=O)c(C(=O)NCc3ccc(F)cc3F)cn2CC12CCNCC2 [Compound 89] | 87 | 16.1 | – | –
CCOC(=O)N1CCC2(CC1)N(CC)C(=O)c1c(O)c(=O)c(-c3nnc(Cc4ccc(F)cc4)s3)cn1N2C [Compound 5] | 250 | 16.4 | – | IC50 [5]: 22 nM
COCCCN1C(=O)c2c(O)c(=O)c(C(=O)NCc3ccc(F)cc3F)cn2CC12CCCOC2 (single isomer, unassigned) [Compound 85] | – | 5.4 | 78 | –
COCN1n2cc(C(=O)NCc3ccc(F)cc3F)c(=O)c(O)c2C(=O)N(C)C12CCOC2 (single isomer, unassigned) [Compound 154] | – | – | 37 | IC50 [4]: 0.7 nM
CC1OCCC12N(C)C(=O)c1c(O)c(=O)c(C(=O)NCc3cccc(Cl)c3F)cn1N2C (single isomer, unassigned) [Compound 137] | – | – | 64 | IC50 [4]: 0.7 nM
CCN1C(=O)c2c(O)c(=O)c(-c3nnc(Cc4ccc(F)cc4F)s3)cn2N(C)C12CCN(C(=O)OC(C)C)CC2 [Compound 9] | 344 | 89.7 | – | –
CCOC(=O)N1CCC2(CC1)Cn1cc(-c3nnc(Cc4ccc(F)cc4F)s3)c(=O)c(O)c1C(=O)N2C [Compound 94] | 116 | 10.6 | – | –
CCN1C(=O)c2c(O)c(=O)c(-c3nnc(Cc4ccc(F)cc4F)s3)cn2N(C)C12CCN1C(=O)CCC1C2 (centres unmarked) [Compound 14] | – | – | – | IC50 [5]: 41 nM

SMILES | IC50 [1] [nM] | IC50 [2] [nM] | IC50 [3] [nM] | also measured
CN1C(=O)c2c(O)c(=O)c(C(=O)NCc3ccc(F)c(Cl)c3)cn2N(C)C12CCOC2 (single isomer, unassigned) [Compound 108] | – | – | 218 | IC50 [4]: 1.1 nM
CN1C(=O)c2c(O)c(=O)c(-c3nnc(Cc4ccc(F)cc4F)s3)cn2N(C)C12CCS(=O)(=O)CC2 [Compound 27] | 712 | 21.2 | – | IC50 [5]: 72 nM
CCOC(=O)N1CCC2(C1)N(CC)C(=O)c1c(O)c(=O)c(C(=O)NCc3ccc(F)cc3F)cn1N2C (single isomer, unassigned) [Compound 139] | – | 1.5 | 247 | –
CCN1C(=O)c2c(O)c(=O)c(-c3nnc(Cc4ccc(F)cc4F)s3)cn2N(C)C12CCCOC2 (centres unmarked) [Compound 37] | 456 | 5.3 | – | –
COCCN1C(=O)c2c(O)c(=O)c(C(=O)NCc3ccc(F)cc3F)cn2CC12COC2 [Compound 70] | 91 | 2.5 | – | –
CCOCCN1C(=O)c2c(O)c(=O)c(C(=O)NCc3cccc(Cl)c3F)cn2CC12CCOC2 (single isomer, unassigned) [Compound 79] | – | 2.3 | 603 | –
COCCN1C(=O)c2c(O)c(=O)c(C(=O)NCc3ccc(F)cc3F)cn2CC12CCCOC2 (single isomer, unassigned) [Compound 83] | 3050 | 7.8 | – | –
O=C1c2c(O)c(=O)c(-c3nnc(Cc4ccc(F)cc4F)s3)cn2CC2(CCOC2)N1CCO (centres unmarked) [Compound 97] | 1050 | 41.7 | – | –
CN1C(=O)c2c(O)c(=O)c(C(=O)NCc3ccc(F)cc3F)cn2N(C)C12CCNC2 (single isomer, unassigned) [Compound 169] | – | 4.4 | 512 | –
CN1C(=O)c2c(O)c(=O)c(C(=O)NCc3ccc(F)cc3F)cn2N(C)C12CCOC2 (centres unmarked) [Compound 103] | 114 | – | – | IC50 [5]: 6 nM; IC50 [4]: 1.7 nM
COCCN1C(=O)c2c(O)c(=O)c(C(=O)NCc3ccc(F)c(C)c3F)cn2CC12CCOC2 (single isomer, unassigned) [Compound 53] | 2570 | 5.3 | – | –
CCN1C(=O)c2c(O)c(=O)c(-c3nnc(Cc4ccc(F)cc4F)s3)cn2CC12CCOCC2 [Compound 99] | 870 | 40.9 | – | –
CCN1C(=O)c2c(O)c(=O)c(C(=O)NCc3ccc(F)cc3F)cn2CC12CCCOC2 (centres unmarked) [Compound 81] | – | 4.3 | 323 | –
COCN1C(=O)c2c(O)c(=O)c(C(=O)NCc3ccc(F)cc3F)cn2CC12CCOC2 (single isomer, unassigned) [Compound 75] | – | 1.8 | 559 | –
COCCCN1n2cc(C(=O)NCc3ccc(F)cc3F)c(=O)c(O)c2C(=O)N(C)C12CCOC2 (single isomer, unassigned) [Compound 158] | – | – | 168 | IC50 [4]: 1 nM
COCCN1C(=O)c2c(O)c(=O)c(C(=O)NCc3ccc(F)cc3)cn2CC12CCOC2 (single isomer, unassigned) [Compound 51] | 196 | 4.8 | – | –
CN1C(=O)c2c(O)c(=O)c(C(=O)NCc3ccc(F)cc3F)cn2CC12CCOC2 (single isomer, unassigned) [Compound 58] | – | – | 27 | IC50 [5]: 5 nM; IC50 [4]: 1.9 nM
CCOP(=O)(CCCN1n2cc(C(=O)NCc3ccc(F)cc3F)c(=O)c(O)c2C(=O)N(C)C12CCOC2)OCC (racemic) [Compound 161] | 227 | – | – | –
CN1C(=O)c2c(O)c(=O)c(C(=O)NCc3ccc(F)c(Cl)c3)cn2N(C)C12CCOC2 (single isomer, unassigned) [Compound 107] | – | 1.2 | 790 | –
CCOCCN1C(=O)c2c(O)c(=O)c(C(=O)NCc3ccc(F)cc3F)cn2N(C)C12CCOCC2 [Compound 142] | 171 | 1.3 | – | IC50 [5]: 13 nM
C[C@@H]1CC2(CCN1C(=O)OCc1ccccc1)N(C)C(=O)c1c(O)c(=O)c(-c3nnc(Cc4ccc(F)cc4F)s3)cn1N2C (some centres unmarked) [Compound 20] | – | – | – | IC50 [5]: 234 nM
CN1C(=O)c2c(O)c(=O)c(C(=O)NCc3ccc(F)cc3F)cn2N(Cc2ccccc2)C12CCOC2 (single isomer, unassigned) [Compound 163] | – | – | 35 | –
CCOC(=O)N1CCC2(CC1)N(CC)C(=O)c1c(O)c(=O)c(-c3nnc(Cc4ccc(F)cc4F)s3)cn1N2C [Compound 6] | 159 | – | – | IC50 [5]: 13 nM
CN1C(=O)c2c(O)c(=O)c(-c3nnc(Cc4ccc(F)cc4F)s3)cn2N(C)C12CCSCC2 [Compound 25] | 257 | 5.3 | – | IC50 [5]: 17 nM
CCOCCN1C(=O)c2c(O)c(=O)c(C(=O)NCc3cccc(Cl)c3F)cn2CC12CCOC2 (single isomer, unassigned) [Compound 80] | – | – | 217 | IC50 [4]: 1.7 nM
